# Source: paper PMC12974487, “Inhibition of FicD-mediated AMPylation and deAMPylation by isoprenoid diphosphates” (Proceedings of the National Academy of Sciences of the …, 2026)
# Residue numbers refer to the chain shown, from its start.
# Key:
# Format in all cases: binding
# FicD^L258D [1] = target: T1, FicD^L258D (Homo sapiens, UniProt Q9BVA6, L258D); test: MIDAS metabolite screen, FicD^L258D; details: cutoff Q < 0.05 and |Log2 corrected fold change| > 2, metabolites 5 µM
# T1 construct: soluble ER luminal domain (residues 105 to 458) of wild-type human FicD and three mutants; 6xHis-Sumo (N, cleaved yes); made in house; host or cells: Rosetta(DE3) E. coli
# T1 sequence (Q9BVA6 105-458 L258D): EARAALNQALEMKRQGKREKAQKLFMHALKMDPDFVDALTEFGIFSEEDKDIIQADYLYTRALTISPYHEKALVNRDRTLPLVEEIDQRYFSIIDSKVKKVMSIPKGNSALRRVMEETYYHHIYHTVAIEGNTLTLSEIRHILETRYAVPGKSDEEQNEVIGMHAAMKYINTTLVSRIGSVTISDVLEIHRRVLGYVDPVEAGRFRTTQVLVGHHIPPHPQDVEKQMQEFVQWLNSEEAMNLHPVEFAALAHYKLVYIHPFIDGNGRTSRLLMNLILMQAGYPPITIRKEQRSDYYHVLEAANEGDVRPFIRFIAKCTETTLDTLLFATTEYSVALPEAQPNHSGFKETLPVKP
# Excerpt: To identify small-molecule metabolite interactions with FicD, we applied an unbiased high-throughput screening approach known as MIDAS ([44]). Given the high concentrations of protein required for MIDAS screening, we purified the soluble ER luminal domain (residues 105 to 458) of wild-type human FicD and three mutants FicD^E234G, FicD^L258D, and FicD^H363A for screening (Fig. 1A). These mutants were selected based on their well-established biochemical features ([23], [24], [31]). All three are predicted to enhance detection of protein–metabolite interactions (PMIs) relative to FicD^WT through increased affinity for nucleotide substrates (FicD^E234G), improved solubility (FicD^L258D), and loss of catalytic turnover (FicD^H363A) (Fig. 1A). To decrease the potential for nonspecific small-molecule binding, we ensured the purity of our FicD proteins (SI Appendix, Fig. S1 A and B). As reported by other investigators ([24], [31]), we observe an increase in elution volume of the FicD^L258D mutant, consistent with its monomerization (SI Appendix, Fig. S1C).
# Out of the 602 naturally occurring human metabolites in the MIDAS library, we applied a significance cutoff (q value < 0.05) to identify 12 PMIs with a Log2 (corrected fold change) of >2 and two PMIs with a Log2 (corrected fold change) <-2 in the FicD^WT screen (Fig. 1B and SI Appendix, Table S2). Hits were additionally triaged based on detection of multiple adducts of the metabolite in a single dataset (FPP and […] in Fig. 1B) and identification of the same metabolites across three or more of the FicD construct screens (Fig. 1C). Three chemical classes passed this initial triage: adenosine nucleotides, isoprenoid diphosphates, and thyroid hormone intermediates (Fig. 1 B and C and SI Appendix, Tables S2–S5).
# 22°C. Induced cultures were then harvested by centrifugation at 8000G for 15 minutes at 4°C and […]
# Bacterial pellets were resuspended in 30-50mL of 50mM Tris pH 7.4/150mM NaCl/10% glycerol with one Roche cOmplete EDTA-Free Protease inhibitor cocktail tablet (cat no. COEDTAF-RO).
# Triton-X100 to a final concentration of 0.2%, Chicken-egg lysozyme to a final concentration of 0.4ug/mL, and 2-5uL of Millipore Benzonase Nuclease (cat no. 70664) were added to bacterial suspension prior to sonication at 40-50% amplitude for 1-3 minutes in pulses of 5 seconds on and 30 seconds off on ice with a Sonics VCX 750 Ultrasonicator. Bacterial lysate was then clarified by centrifugation at 30,000 x g for 30 minutes at 4°C.
# Clarified lysate was rotated with Qiagen NiNTA agarose beads (cat no. 30210) for 1-2 hours at 4°C. The beads were then transferred to a 15mL conical vial, resuspended in 10-15mL wash buffer (50mM Tris pH 7.4/150mM NaCl/10% glycerol/0.2% Triton-X 100/10mM imidazole), and spun down at 1000G for 1 minute at 4°C, after which the supernatant was aspirated from the beads. This washing step was repeated 2-4 times to rinse bacterial lysate from the beads prior to on-column washing. The beads were then transferred to BioRad Econopac 20mL bed volume column (cat no.
# 7321010) and washed with 10-15mL of wash buffer (repeated at least three times), 10mL of ATP wash (50mM Tris pH 7.4/300mM KCl/10mM MgCl2/500uM ATP, repeated once), and finally with 10-15mL wash buffer without Triton-X 100 (repeated at least three times). Protein was eluted in 500μL-1mL elution buffer (50mM Tris pH 7.5/150mM NaCl/10% glycerol/0.5% CHAPS). […]
# FicD^E234G = target: T2, FicD^E234G (Homo sapiens, UniProt Q9BVA6, E234G); test: MIDAS metabolite screen, FicD^E234G; details: cutoff Q < 0.05 and |Log2 corrected fold change| > 2, metabolites 5 µM
# T2 construct: soluble ER luminal domain (residues 105 to 458) of wild-type human FicD and three mutants; 6xHis-Sumo (N, cleaved yes); made in house; host or cells: Rosetta(DE3) E. coli
# T2 sequence (Q9BVA6 105-458 E234G): T1 sequence (Q9BVA6 105-458 L258D) with E130G, D154L
# FicD^WT = target: T3, FicD^WT (Homo sapiens, UniProt Q9BVA6); test: MIDAS equilibrium dialysis/mass spectrometry metabolite screen, FicD^WT; details: cutoff Q < 0.05 and |Log2 corrected fold change| > 2, metabolites 5 µM
# T3 construct: soluble ER luminal domain (residues 105 to 458) of wild-type human FicD; 6xHis-Sumo (N, cleaved yes); made in house; host or cells: Rosetta(DE3) E. coli
# T3 sequence (Q9BVA6 105-458): T1 sequence (Q9BVA6 105-458 L258D) with D154L
# FicD^L258D [2] = target: T1, FicD^L258D; test: Differential scanning fluorimetry (DSF) thermal shift with FicD^L258D
# Method: Differential Scanning Fluorimetry
# Thermal shift assays were performed in Biorad CfX384 Touch Real-Time PCR Detection System […]
# Reactions contained 50mM HEPES pH 7.4, 200mM NaCl, 200mM KCl, 200uM DTT, 5X Invitrogen Sypro Orange (Cat no. S6650), 8-9μM protein, and indicated nucleotide, cofactor, or small molecule in a total volume of 20uL. For every experiment ‘no protein’ controls were also included with the same reaction conditions. All reactions were performed in technical triplicates. Sealed plates containing reaction mixes were centrifuged for 1-5 min at 1000 RPM prior to temperature scanning (FRET channel), which was performed from 6°C […]
# DSF data was analyzed with traditional methods automated in a Python package (https://pypi.org/project/instawell/). Briefly, for each temperature, the RFU values of technical triplicates are averaged. For each timepoint, the background fluorescence was subtracted using the RFU values of the ‘no protein’ control. […]
# calculated. The melting temperature (Tm) is defined as the first derivative peak value. Data
Compound,MIDAS protein-metabolite interaction (enrichment/depletion) (FicD^L258D [1]),MIDAS protein-metabolite interaction (enrichment/depletion) (FicD^E234G),MIDAS protein-metabolite interaction (enrichment/depletion) (FicD^WT),"maximal Tm shift at saturating ligand concentration (FicD^L258D [2]; FicD^L258D, 5 mM MgCl2)","EC50 (FicD^L258D [2]; FicD^L258D, 5 mM MgCl2, read-out: EC50 of DSF dose-response (ΔTm))",binding to FicD^L258D by DSF (FicD^L258D [2]; absence of MgCl2),binding to FicD^L258D by DSF (FicD^L258D [2]; presence of 5 mM MgCl2)
Nc1ncnc2c1ncn2[C@H]1C[C@H](O)[C@@H](COP(=O)(O)OP(=O)(O)OP(=O)(O)O)O1 [dATP],did not pass the significance cutoff,significantly enriched,significantly enriched,~ 7 °C,530 µM,did not bind,binding
deoxyadenosine diphosphate [dADP],significantly enriched,significantly enriched,significantly enriched,~ 11 °C,–,did not bind,binding
